Assay [1] addresses T1, neurokinin-1 (NK-1) receptor (Homo sapiens, UniProt P25103).
T1 construct: endogenously expresses the neurokinin-1 (NK-1) receptor; endogenous in cells; host or cells: U373 human glioblastoma-astrocytoma cells (membranes)
As to the kind of experiment: NK-1 binding assay, [125I] Substance P competition on U373 cell membranes. Particulars: Bolton Hunter labeled [125I] Substance P displacement. As for the experimental part: U373 cells, a human glioblastoma-astrocytoma cell line that endogenously expresses the neurokinin-1 (NK-1) receptor, were grown in a monolayer culture at 37° C. in 5% CO2 and fed with Minimum Essential Medium (MEM) supplemented with 10% fetal bovine serum. Membranes were prepared as follows: Cells were washed twice with ice-cold phosphate-buffered saline (pH 7.4) and then incubated for 5 to 10 minutes with ice-cold 10 mM Tris buffer (pH 7.4) containing 5 mM EDTA. Cells were removed from plates, homogenized, and centrifuged at 32,000×g for 20 minutes. The resulting supernatant was discarded, and the pellet resuspended by homogenization in 50 mM Tris buffer (pH 7.4) containing 1 mM EDTA and centrifuged at 32,000×g for 20 minutes. […]
On the day of an experiment the membrane preparation was thawed, homogenized and diluted with NK-1 binding assay buffer to the appropriate concentration. […] The amount of radioligand bound in the presence and absence of competitor was analyzed by plotting (−)log drug concentration versus the amount of radioligand specifically bound. […] Ki values were calculated using the method of Cheng and Prusoff [Cheng, Y.-C. and Prusoff, W. H., Biochemical Pharmacology, Vol. 22, pp. 3099-3108, Pergamon Press (1973)].

Assay [2] addresses T2, human serotonin transporters (Homo sapiens, UniProt P31645).
T2 construct: expressed in transfected cells
As to the kind of experiment: Serotonin transporter binding assay, [3H]-citalopram competition on HEK-hSERT cell membranes. The settings on record: 1 nM [3H]-citalopram displacement, read-out: SERT IC50. The procedure:
HEK-293 cells that stably express human serotonin transporters (HEK-hSERT cells) were grown at 37° C. in 5% CO2 as a monolayer in medium consisting of EMEM supplemented with 10% fetal bovine serum and G418 sulfate (500 μg/ml). To prepare membranes for radioligand binding experiments, cells were rinsed twice with phosphate-buffered saline (138 mM NaCl, 4.1 mM KCl, 5.1 mM Na2PO4, 1.5 mM […], 11.1 mM glucose, pH 7.4). Cells were transferred from plates to polypropylene tubes (16×100 mm), centrifuged at 1,200×g for 5 min and were frozen at −80° C. until assay. Following centrifugation, pellets were resuspended by homogenization in buffer consisting of 50 mM Tris (pH 7.7 at 25° C.), 120 mM NaCl and 5 mM KCl and then centrifuged at 32,000×g for 10 min. Following centrifugation, supernatants were discarded and pellets were resuspended in buffer consisting of 50 mM Tris (pH 7.4 at 25° C.), 150 mM NaCl and 5 mM KCl. […] Amount of radioligand bound in the presence and absence of competitor was analyzed by plotting (−)log drug concentration versus the amount of radioligand specifically bound. […] Ki values were calculated using the method of Cheng and Prusoff Cheng and Prusoff [Cheng, Y.-C. and Prusoff, W. H., Biochemical Pharmacology, Vol. 22, pp. 3099-3108, Pergamon Press (1973)].

T1 sequence (P25103 whole entry): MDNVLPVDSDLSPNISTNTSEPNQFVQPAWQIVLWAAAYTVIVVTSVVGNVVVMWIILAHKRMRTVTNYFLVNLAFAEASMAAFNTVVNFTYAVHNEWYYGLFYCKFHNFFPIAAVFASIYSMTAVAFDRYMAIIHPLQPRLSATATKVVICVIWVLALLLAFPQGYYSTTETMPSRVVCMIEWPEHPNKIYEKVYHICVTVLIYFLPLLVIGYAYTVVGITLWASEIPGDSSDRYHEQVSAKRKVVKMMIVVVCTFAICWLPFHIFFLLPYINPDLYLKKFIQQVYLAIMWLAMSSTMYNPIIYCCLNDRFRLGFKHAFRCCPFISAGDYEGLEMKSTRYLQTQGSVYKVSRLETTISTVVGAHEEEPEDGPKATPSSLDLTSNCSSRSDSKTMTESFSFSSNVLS
T2 sequence (P31645 whole entry): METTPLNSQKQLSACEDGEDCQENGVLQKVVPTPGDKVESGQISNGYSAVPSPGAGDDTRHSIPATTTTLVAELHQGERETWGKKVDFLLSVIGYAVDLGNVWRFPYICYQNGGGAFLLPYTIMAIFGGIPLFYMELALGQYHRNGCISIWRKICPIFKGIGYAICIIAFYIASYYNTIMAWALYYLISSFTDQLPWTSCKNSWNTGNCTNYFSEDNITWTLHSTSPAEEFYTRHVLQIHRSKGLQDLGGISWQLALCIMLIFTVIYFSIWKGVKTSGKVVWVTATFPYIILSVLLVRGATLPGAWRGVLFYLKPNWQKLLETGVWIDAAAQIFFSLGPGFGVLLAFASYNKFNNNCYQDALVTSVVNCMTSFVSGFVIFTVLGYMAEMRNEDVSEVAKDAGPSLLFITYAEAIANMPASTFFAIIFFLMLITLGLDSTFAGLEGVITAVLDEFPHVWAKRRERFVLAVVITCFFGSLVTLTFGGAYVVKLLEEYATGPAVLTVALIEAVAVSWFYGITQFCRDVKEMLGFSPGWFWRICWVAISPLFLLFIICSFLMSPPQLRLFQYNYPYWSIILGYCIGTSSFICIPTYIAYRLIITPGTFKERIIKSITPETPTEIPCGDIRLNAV

What is called IC50 is the point on the concentration scale where inhibition reaches its midpoint. For `FC(F)(F)c1cc(COCC2(c3ccccc3)CCCCNCC2)cc(C(F)(F)F)c1` (stereo not shown) [Example 1, 4-((3,5-bis(trifluoromethyl)benzyloxy)methyl)-4-phenylazocane], the IC50 was less than 20 nM in assay [1] and 20 to 100 nM in assay [2].

Take `FC(F)(F)c1cc(COCC2(c3ccccc3)CCCNCCC2)cc(C(F)(F)F)c1` [Example 2, 5-((3,5-bis(trifluoromethyl)benzyloxy)methyl)-5-phenylazocane]: the figures for the IC50 in assay [1] and in assay [2] were less than 20 nM and 20 to 100 nM, respectively.
